Where a SMILES comes first, the peptide text is derived from it. Bridges are numbered along the chain shown (N, C = ends). [ ]: non-standard residue; d: D form. The star is where a group is joined. ξ: configuration not given here. Phe(3-CF3) = N[C@@H](Cc1cccc(C(F)(F)F)c1)C(=O)O; Ala(morpholin-4-yl) = N[C@@H](CN1CCOCC1)C(=O)O; Phe(4-COOH) = N[C@@H](Cc1ccc(C(=O)O)cc1)C(=O)O; Bip = N[C@@H](Cc1ccc(-c2ccccc2)cc1)C(=O)O; Phe(3-Me) = Cc1cccc(C[C@H](N)C(=O)O)c1; Phe(4-Me) = Cc1ccc(C[C@H](N)C(=O)O)cc1; 1Nal = N[C@@H](Cc1cccc2ccccc12)C(=O)O; ξLys(N3) = [N-]=[N+]=NCCCCC(N)C(=O)O; Val(3-OH) = CC(C)(O)[C@H](N)C(=O)O; 4Pal = N[C@@H](Cc1ccncc1)C(=O)O; Cha = N[C@@H](CC1CCCCC1)C(=O)O; Cit = NC(=O)NCCC[C@H](N)C(=O)O; dCha = N[C@H](CC1CCCCC1)C(=O)O; Thr(3ξ) = CC(O)[C@H](N)C(=O)O; Carboxymethyl = O=C(O)C*; Nle = CCCC[C@H](N)C(=O)O; Orn = NCCC[C@H](N)C(=O)O; Dab = NCC[C@H](N)C(=O)O; Dap = NC[C@H](N)C(=O)O; Bn = c1ccc(C*)cc1; Propargyl = C#CC*
biological target: T1, human PD-1 / PD-L1-Ig binding on Jurkat cell line over-expressing human PD-1 (Jurkat-PD-1) (Homo sapiens, UniProt Q15116); assay: Jurkat-PD-1 Cell Binding High-Content Screening Assay (CBA); format: cell-based; settings: Jurkat HPD1_PDL1 IC50, Jurkat-PD-1 cells, PE-labeled PD-L1-Ig 20 nM final
T1 construct: expressed in transfected cells; host or cells: Jurkat
T1 sequence (Q15116 25-288): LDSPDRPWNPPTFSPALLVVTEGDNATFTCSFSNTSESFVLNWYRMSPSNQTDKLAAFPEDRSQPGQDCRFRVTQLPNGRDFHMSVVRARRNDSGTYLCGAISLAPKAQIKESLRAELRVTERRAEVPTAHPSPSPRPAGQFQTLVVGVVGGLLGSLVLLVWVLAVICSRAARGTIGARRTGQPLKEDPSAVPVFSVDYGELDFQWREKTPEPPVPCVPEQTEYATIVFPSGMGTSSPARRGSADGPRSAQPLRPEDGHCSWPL
Method in brief: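 Read-out: high-content imaging of PE-tagged PD-L1-Ig bound to Jurkat cells overexpressing human PD-1, after fixation with 4% paraformaldehyde and Hoechst 33342 nuclear staining. Ligand was used at 20 nM final for 1 hour, after a 2 h compound exposure at 37° C in serum-containing DMEM.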

SMILES | IC50 [nM]
CC(C)C[C@H]1NC(=O)[C@H](CCCN)NC(=O)[C@H](C(C)C)NC(=O)[C@H](Cc2ccc(-c3ccccc3)cc2)NC(=O)[C@H](C(C)C)NC(=O)[C@H](Cc2c[nH]c3ccccc23)NC(=O)[C@H](CC(=O)O)NC(=O)[C@H](Cc2ccc(OCC(=O)O)cc2)NC(=O)[C@H](CN)NC(=O)CSC[C@@H](C(=O)N[C@@H](C)C(N)=O)NC(=O)[C@H]([C@@H](C)O)NC(=O)[C@H](C(C)C)NC(=O)[C@H](CC2CCCCC2)NC(=O)[C@H](Cc2ccc(OCc3ccccc3)cc2)NC1=O [Compound 1531] ({CH2CO}-[Dap]Y(Carboxymethyl)DWV[Bip]V[Orn][dL]Y(Bn)[Cha]VTCA-NH2; thioether N-14) | 707
CC(C)C[C@H]1NC(=O)[C@H](CCCN)NC(=O)[C@H](CCCNC(N)=O)NC(=O)[C@H](Cc2ccc(-c3ccccc3)cc2)NC(=O)[C@H](C(C)C)NC(=O)[C@H](Cc2c[nH]c3ccccc23)NC(=O)[C@H](CC(=O)O)NC(=O)[C@H](Cc2ccc(C(=O)O)cc2)NC(=O)[C@H](Cc2ccncc2)NC(=O)CSC[C@@H](C(=O)N[C@@H](C)C(N)=O)NC(=O)[C@H]([C@@H](C)O)NC(=O)[C@H](C(C)C)NC(=O)[C@H](CC2CCCCC2)NC(=O)[C@H](Cc2c[nH]cn2)NC1=O [Compound 1598] | 9.9

same assay, conditions: Jurkat-PD-1 cells, PE-labeled PD-L1-Ig 20 nM final; read-out: Jurkat HPD1_PDL1 IC50

IC50 [nM] | SMILES
30.4 | CC(C)[C@@H]1NC(=O)[C@H](Cc2c[nH]c3ccccc23)NC(=O)[C@H](CC(=O)O)NC(=O)[C@H](Cc2ccc(C(=O)O)cc2)NC(=O)[C@H](Cc2ccc(OCC(=O)O)cc2)NC(=O)CSC[C@@H](C(=O)N[C@@H](C)C(N)=O)NC(=O)[C@H]([C@@H](C)O)NC(=O)[C@H](C(C)C)NC(=O)[C@H](CC2CCCCC2)NC(=O)[C@H](CCN)NC(=O)[C@@H](CC2CCCCC2)NC(=O)[C@H](CCCN)NC(=O)[C@H](CCCNC(N)=O)NC(=O)[C@H](Cc2ccc(-c3ccccc3)cc2)NC1=O [Compound 1642] ({CH2CO}-Y(Carboxymethyl)[Phe(4-COOH)]DWV[Bip][Cit][Orn][dCha][Dab][Cha]VTCA-NH2; thioether N-14)
21 | CCC[C@@H]1NC(=O)[C@H](Cc2c[nH]c3ccccc23)NC(=O)[C@H](CC(=O)O)NC(=O)[C@H](Cc2ccc(OCC(=O)O)cc2)NC(=O)[C@H](CN)NC(=O)CSC[C@@H](C(=O)N[C@@H](C)C(N)=O)NC(=O)[C@H]([C@@H](C)O)NC(=O)[C@H](C(C)C)NC(=O)[C@H](CC2CCCCC2)NC(=O)[C@H](CCN)NC(=O)[C@@H](CC(C)C)NC(=O)[C@H](CCCN)NC(=O)[C@H](CCC(=O)O)NC(=O)[C@H](Cc2ccc(-c3ccccc3)cc2)NC1=O [Compound 1719]
115 | CC(C)C[C@@H]1NC(=O)[C@H](Cc2c[nH]c3ccccc23)NC(=O)[C@H](CC(=O)O)NC(=O)[C@H](Cc2ccc(O)cc2)NC(=O)[C@H](Cc2ccccc2)NC(=O)CSC[C@@H](C(=O)NCC(N)=O)NC(=O)[C@H](CO)NC(=O)[C@H](C(C)C)NC(=O)[C@H](CC(C)C)NC(=O)[C@H](CCN)NC(=O)[C@@H](C)NC(=O)[C@H](CN)NC(=O)[C@H](C(C)C)NC(=O)[C@H](Cc2ccc(-c3ccccc3)cc2)NC1=O [Compound 1098] ({CH2CO}-FYDWL[Bip]V[Dap][dA][Dab]LVSCG-NH2; thioether N-14)
135 | C#CCOc1ccc(C[C@@H]2NC(=O)[C@H](CN)NC(=O)CSC[C@@H](C(=O)NC(CCCCN=[N+]=[N-])C(N)=O)NC(=O)[C@H]([C@@H](C)O)NC(=O)[C@H](C(C)C)NC(=O)[C@H](CC3CCCCC3)NC(=O)[C@H](CCN)NC(=O)[C@@H](CC(C)C)NC(=O)[C@H](CCCN)NC(=O)[C@H](CCC(=O)O)NC(=O)[C@H](Cc3ccc(-c4ccccc4)cc3)NC(=O)[C@H](C(C)C)NC(=O)[C@H](Cc3c[nH]c4ccccc34)NC(=O)[C@H](CC(=O)O)NC2=O)cc1 (stereo partly drawn) [Compound 1538] ({CH2CO}-[Dap]Y(Propargyl)DWV[Bip]E[Orn][dL][Dab][Cha]VTC[ξLys(N3)]-NH2; thioether N-14)
5.4 | CC(C)C[C@H]1NC(=O)[C@H](CCCN)NC(=O)[C@H](Cc2ccc(C(=O)O)cc2)NC(=O)[C@H](Cc2ccc(-c3ccccc3)cc2)NC(=O)[C@H](Cc2cccc3ccccc23)NC(=O)[C@H](Cc2cccc(C(F)(F)F)c2)NC(=O)[C@H](CC(=O)O)NC(=O)[C@H](Cc2ccc(C(=O)O)cc2)NC(=O)[C@H](CN2CCOCC2)NC(=O)CSC[C@@H](C(=O)N[C@@H](CCN)C(N)=O)NC(=O)[C@H](CCC(=O)O)NC(=O)[C@H](C(C)C)NC(=O)[C@H](CC2CCCCC2)NC(=O)[C@H](CCN)NC1=O [Example 2737] ({CH2CO}-[Ala(morpholin-4-yl)][Phe(4-COOH)]D[Phe(3-CF3)][1Nal][Bip][Phe(4-COOH)][Orn][dL][Dab][Cha]VEC[Dab]-NH2; thioether N-14)
8.2 | CCCC[C@@H]1NC(=O)[C@H](CCN)NC(=O)[C@@H](CC(C)C)NC(=O)[C@H](CCCN)NC(=O)[C@H](C(C)C)NC(=O)[C@H](Cc2ccc(-c3ccccc3)cc2)NC(=O)[C@H](CC(C)C)NC(=O)[C@H](Cc2c[nH]c3ccccc23)NC(=O)[C@H](CC(=O)O)NC(=O)[C@H](Cc2ccc(OCC(=O)O)cc2)NC(=O)[C@H](CN)NC(=O)CSC[C@@H](C(=O)NCC(N)=O)NC(=O)[C@H](CO)NC(=O)[C@H](C(C)C)NC1=O [Compound 1408] ({CH2CO}-[Dap]Y(Carboxymethyl)DWL[Bip]V[Orn][dL][Dab][Nle]VSCG-NH2; thioether N-14)
21.5 | CC(C)C[C@@H]1NC(=O)[C@H](CCN)NC(=O)[C@@H](CC(C)C)NC(=O)[C@H](CCCN)NC(=O)[C@H](CCCNC(N)=O)NC(=O)[C@H](Cc2ccc(-c3ccccc3)cc2)NC(=O)[C@H](C(C)C)NC(=O)[C@H](Cc2c[nH]c3ccccc23)NC(=O)[C@H](CC(=O)O)NC(=O)[C@H](Cc2ccc(C(=O)O)cc2)NC(=O)[C@H](Cc2ccc(OCC(=O)O)cc2)NC(=O)CSC[C@@H](C(=O)N[C@@H](C)C(N)=O)NC(=O)[C@H]([C@@H](C)O)NC(=O)[C@H](C(C)C)NC1=O [Compound 1252] ({CH2CO}-Y(Carboxymethyl)[Phe(4-COOH)]DWV[Bip][Cit][Orn][dL][Dab]LVTCA-NH2; thioether N-14)
19.9 | Cc1ccc(C[C@@H]2NC(=O)[C@H](CN)NC(=O)CSC[C@@H](C(=O)N[C@@H](C)C(N)=O)NC(=O)[C@H]([C@@H](C)O)NC(=O)[C@H](C(C)C)NC(=O)[C@H](CC3CCCCC3)NC(=O)[C@H](CCN)NC(=O)[C@@H](CC(C)C)NC(=O)[C@H](CCCN)NC(=O)[C@H](CCCNC(N)=O)NC(=O)[C@H](Cc3ccc(-c4ccccc4)cc3)NC(=O)[C@H](C(C)C)NC(=O)[C@H](Cc3c[nH]c4ccccc34)NC(=O)[C@H](CC(=O)O)NC2=O)cc1 [Compound 2108] ({CH2CO}-[Dap][Phe(4-Me)]DWV[Bip][Cit][Orn][dL][Dab][Cha]VTCA-NH2; thioether N-14)
7.3 | Cc1cccc(C[C@@H]2NC(=O)[C@H](CC(=O)O)NC(=O)[C@H](Cc3ccc(OCC(=O)O)cc3)NC(=O)[C@H](Cc3ccncc3)NC(=O)CSC[C@@H](C(=O)N[C@@H](CCN)C(N)=O)NC(=O)[C@H](CO)NC(=O)[C@H](C(C)(C)O)NC(=O)[C@H](CC3CCCCC3)NC(=O)[C@H](CCN)NC(=O)[C@@H](CC(C)C)NC(=O)[C@H](CCC(N)=O)NC(=O)[C@H](Cc3ccc(C(=O)O)cc3)NC(=O)[C@H](Cc3ccc(-c4ccccc4)cc3)NC(=O)[C@H](Cc3ccc(C(=O)O)cc3)NC2=O)c1 [Compound 2643] ({CH2CO}-[4Pal]Y(Carboxymethyl)D[Phe(3-Me)][Phe(4-COOH)][Bip][Phe(4-COOH)]Q[dL][Dab][Cha][Val(3-OH)]SC[Dab]-NH2; thioether N-14)
27 | CC(C)C[C@@H]1NC(=O)[C@H](Cc2c[nH]c3ccccc23)NC(=O)[C@H](CC(=O)O)NC(=O)[C@H](Cc2ccncc2)NC(=O)[C@H](CN)NC(=O)CSC[C@@H](C(=O)NCC(N)=O)NC(=O)[C@H](CO)NC(=O)[C@H](C(C)C)NC(=O)[C@H](CC2CCCCC2)NC(=O)[C@H](CC(N)=O)NC(=O)[C@@H](CC(C)C)NC(=O)[C@H](CCCN)NC(=O)[C@H](C(C)C)NC(=O)[C@H](Cc2ccc(-c3ccccc3)cc2)NC1=O [Compound 1337] ({CH2CO}-[Dap][4Pal]DWL[Bip]V[Orn][dL]N[Cha]VSCG-NH2; thioether N-14)
28.6 | CC(C)C[C@H]1NC(=O)[C@H](CCCN)NC(=O)[C@H](C(C)O)NC(=O)[C@H](Cc2ccc(-c3ccccc3)cc2)NC(=O)[C@H](C(C)C)NC(=O)[C@H](Cc2c[nH]c3ccccc23)NC(=O)[C@H](CC(=O)O)NC(=O)[C@H](Cc2ccc(OCC(=O)O)cc2)NC(=O)[C@H](CN)NC(=O)CSC[C@@H](C(=O)N[C@@H](CC(N)=O)C(N)=O)NC(=O)[C@H](C(C)O)NC(=O)[C@H](C(C)C)NC(=O)[C@H](CC2CCCCC2)NC(=O)[C@H](Cc2c[nH]cn2)NC1=O (stereo partly drawn) [Compound 2552] ({CH2CO}-[Dap]Y(Carboxymethyl)DWV[Bip][Thr(3ξ)][Orn][dL]H[Cha]V[Thr(3ξ)]CN-NH2; thioether N-14)
12 | CCCC[C@@H]1NC(=O)[C@H](CCN)NC(=O)[C@@H](CC(C)C)NC(=O)[C@H](CCCN)NC(=O)[C@H]([C@@H](C)CC)NC(=O)[C@H](Cc2ccc(-c3ccccc3)cc2)NC(=O)[C@H](C(C)C)NC(=O)[C@H](Cc2cccc(C)c2)NC(=O)[C@H](CC(=O)O)NC(=O)[C@H](Cc2ccc(OCC(=O)O)cc2)NC(=O)[C@H](Cc2ccncc2)NC(=O)CSC[C@@H](C(=O)N[C@@H](C)C(N)=O)NC(=O)[C@H]([C@@H](C)O)NC(=O)[C@H](C(C)C)NC1=O [Compound 1197]
28.9 | CC(C)C[C@@H]1NC(=O)[C@H](CCN)NC(=O)[C@@H](CC(C)C)NC(=O)[C@H](CCCN)NC(=O)[C@H](CCCNC(=N)N)NC(=O)[C@H](Cc2ccc(-c3ccccc3)cc2)NC(=O)[C@H](C(C)C)NC(=O)[C@H](Cc2c[nH]c3ccccc23)NC(=O)[C@H](CC(=O)O)NC(=O)[C@H](Cc2ccc(OCC(=O)O)cc2)NC(=O)[C@H](Cc2ccncc2)NC(=O)CSC[C@@H](C(=O)N[C@@H](C)C(N)=O)NC(=O)[C@H]([C@@H](C)O)NC(=O)[C@H](C(C)C)NC1=O [Compound 1242] ({CH2CO}-[4Pal]Y(Carboxymethyl)DWV[Bip]R[Orn][dL][Dab]LVTCA-NH2; thioether N-14)

Source: patent US20250163104A1, “MACROCYCLIC IMMUNOMODULATORS” (priority 2021, published 2025)
